Common to all, as to format: biochemical
Experiment [1] has as its target MMP-13CD (catalytic domain of collagenase 3) (Homo sapiens, UniProt P45452). Briefly: Thiopeptolide substrate hydrolysis assay, MMP-13CD. To be noted: thiopeptolide substrate, HEPES pH 7.0, 22° C.; for IC50: read-out: IC50 (μM) Versus Certain MMPs: MMP-13 CD. From the text: (§1) Thiopeptolide substrates show virtually no decomposition or hydrolysis at or below neutral pH in the absence of a matrix metalloproteinase enzyme.

The target in experiment [2] is T1, MMP-7FL (full length matrilysin) (Homo sapiens, UniProt P09237).
T1 sequence (P09237 95-267): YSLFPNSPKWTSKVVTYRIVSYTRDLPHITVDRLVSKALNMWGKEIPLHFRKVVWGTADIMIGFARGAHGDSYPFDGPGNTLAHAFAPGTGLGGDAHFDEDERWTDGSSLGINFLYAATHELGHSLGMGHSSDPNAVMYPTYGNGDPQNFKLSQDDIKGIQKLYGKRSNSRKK
Briefly: Thiopeptolide substrate hydrolysis assay, MMP-7FL. The following applies: HEPES pH 7.0, 22° C., read-out: IC50 (μM) Versus Certain MMPs: MMP-07 FL.
Description: (§2) The invention compounds of Formula I have been evaluated in standard assays for their ability to inhibit the catalytic activity of various MMP enzymes.
as §1
(§3) Several representative compounds have been evaluated for their ability to inhibit various matrix metalloproteinase enzymes.

The target in experiment [3] is T2, MMP-2FL (full length Gelatinase A) (Homo sapiens, UniProt P08253).
T2 sequence (P08253 110-660): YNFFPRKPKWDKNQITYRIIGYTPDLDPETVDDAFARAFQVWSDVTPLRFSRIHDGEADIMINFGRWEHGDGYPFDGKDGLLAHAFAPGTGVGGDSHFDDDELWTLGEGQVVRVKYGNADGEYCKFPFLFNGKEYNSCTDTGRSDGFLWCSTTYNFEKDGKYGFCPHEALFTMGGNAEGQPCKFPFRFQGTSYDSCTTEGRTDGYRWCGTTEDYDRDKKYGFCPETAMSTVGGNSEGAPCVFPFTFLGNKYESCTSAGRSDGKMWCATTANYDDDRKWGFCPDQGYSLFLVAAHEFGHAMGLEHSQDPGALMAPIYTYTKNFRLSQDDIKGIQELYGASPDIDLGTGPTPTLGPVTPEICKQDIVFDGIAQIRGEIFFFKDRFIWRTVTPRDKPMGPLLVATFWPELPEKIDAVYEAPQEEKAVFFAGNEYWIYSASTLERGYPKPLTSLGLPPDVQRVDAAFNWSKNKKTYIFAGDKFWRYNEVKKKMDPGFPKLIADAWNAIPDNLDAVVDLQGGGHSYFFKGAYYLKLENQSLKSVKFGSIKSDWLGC
Briefly: Thiopeptolide substrate hydrolysis assay, MMP-2FL. To be noted: HEPES pH 7.0, 22° C., read-out: IC50 (μM) Versus Certain MMPs: MMP-02 FL.
Description: as §2, §1, §3

Experiment [4] addresses MMP-14CD (catalytic domain of MMP-14) (Homo sapiens, UniProt P50281). Description: Thiopeptolide substrate hydrolysis assay, MMP-14CD. To be noted: HEPES pH 7.0, 22° C., read-out: IC50 (μM) Versus Certain MMPs: MMP-14 CD.
Description: as §2, §1, §3

The target in experiment [5] is MMP-9FL (full length Gelatinase B) (Homo sapiens, UniProt P14780). Description: Thiopeptolide substrate hydrolysis assay, MMP-9FL. To be noted: HEPES pH 7.0, 22° C., read-out: IC50 (μM) Versus Certain MMPs: MMP-09 FL.
MMP-9FL (full length Gelatinase B), sequence (P14780 94-707, species assumed): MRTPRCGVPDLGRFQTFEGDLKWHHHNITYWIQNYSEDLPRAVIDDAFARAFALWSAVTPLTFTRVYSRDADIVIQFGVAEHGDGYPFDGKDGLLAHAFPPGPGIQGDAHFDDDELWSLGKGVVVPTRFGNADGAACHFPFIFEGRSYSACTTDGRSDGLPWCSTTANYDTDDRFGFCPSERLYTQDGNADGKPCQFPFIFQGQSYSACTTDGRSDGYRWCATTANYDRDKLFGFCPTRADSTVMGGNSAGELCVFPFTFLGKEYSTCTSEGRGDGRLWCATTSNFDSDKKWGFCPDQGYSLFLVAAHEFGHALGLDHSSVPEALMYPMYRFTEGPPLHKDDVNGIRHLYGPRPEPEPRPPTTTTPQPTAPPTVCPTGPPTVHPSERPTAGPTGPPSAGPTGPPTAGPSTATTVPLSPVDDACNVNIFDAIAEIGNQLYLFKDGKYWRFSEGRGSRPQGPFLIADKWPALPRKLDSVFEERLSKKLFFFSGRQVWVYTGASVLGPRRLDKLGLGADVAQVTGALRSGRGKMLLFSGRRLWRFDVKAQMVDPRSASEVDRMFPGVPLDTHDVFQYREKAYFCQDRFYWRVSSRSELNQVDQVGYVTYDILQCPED
Description: as §2, §1, §3

SMILES strings stand for the structures. Where a name gives a salt, the structure may show the parent alone.

In general, IC50 refers to the concentration at which inhibition is half-maximal. For `O=c1cc2sccn2c(=O)n1Cc1ccncc1` [6-(4-Pyridylmethyl)-thiazolo[3,2-c]pyrimidine-5,7,dione], the IC50 in experiment [1] was greater than 100 µM.

Turning to `O=C(c1ccccc1)n1c(=O)cc2sccn2c1=O` [6-Benzoyl-thiazolo[3,2-c]pyrimidine-5,7-dione], the IC50 in experiment [1] was greater than 100 µM.

Take `O=c1cc2sc(C(O)c3ccccc3)cn2c(=O)n1Cc1ccccc1` (stereo not drawn) [Example 7, 6-Benzyl-2-(hydroxy-phenyl-methyl)-thiazolo[3,2-c]pyrimidine-5,7-dione]: the IC50 in experiment [1] was 32 µM.

In the case of `O=C(OCc1ccccc1)C1CSc2cc(=O)n(Cc3ccccc3)c(=O)n21` (stereo not drawn) [Example 20, 6-Benzyl-5,7-dioxo-2,3,6,7-tetrahydro-5H-thiazolo[3,2-c]pyrimidine-3-carboxylic acid benzyl ester], the “IC50 (μM) Versus Certain MMPs: MMP-13 CD” value in experiment [1] is listed as “none”.

For the compound `Cc1nc(Cn2c(=O)c(C)c3sc(C(=O)NCc4ccc(F)cc4)cn3c2=O)cs1` [Example 64, 8-Methyl-6-(2-methyl-thiazol-4-ylmethyl)-5,7-dioxo-6,7-dihydro-5H-thiazolo[3,2-c]pyrimidine-2-carboxylic acid 4-fluoro-benzylamide], the IC50 in experiment [2] is greater than 100 µM; in experiment [3] it was greater than 100 µM; in experiment [4] it was greater than 100 µM; in experiment [5], greater than 30 µM.

Consider `Cc1c(=O)n(Cc2ccc(F)cc2)c(=O)n2cc(C(=O)NCc3ccncc3)sc12` [Example 70, 6-(4-Fluoro-benzyl)-8-methyl-5,7-dioxo-6,7-dihydro-5H-thiazolo[3,2-c]pyrimidine-2-carboxylic acid(pyridin-4-ylmethyl)-amide hydrochloride], for which the 50% inhibitory concentration (IC50) in experiment [2], in experiment [3], in experiment [4] and in experiment [5] was greater than 30 µM each time.

In the case of `Cc1c(=O)n(Cc2ccc(Br)cc2)c(=O)n2cc(C(=O)NCc3ccncc3)sc12` [Example 71, 6-(4-Bromo-benzyl)-8-methyl-5,7-dioxo-6,7-dihydro-5H-thiazolo[3,2-c]pyrimidine-2-carboxylic acid(pyridin-4-ylmethyl)-amide hydrochloride], the half-maximal inhibitory concentration (IC50) in experiment [2], in experiment [3], in experiment [4] and in experiment [5] was greater than 30 µM in each case.

`Cc1c(=O)n(Cc2ccc(Cl)cc2)c(=O)n2cc(C(=O)NCc3ccncc3)sc12` [Example 72, 6-(4-Chloro-benzyl)-8-methyl-5,7-dioxo-6,7-dihydro-5H-thiazolo[3,2-c]pyrimidine-2-carboxylic acid(pyridin-4-ylmethyl)-amide]: the IC50 in experiment [2], in experiment [3], in experiment [4] and in experiment [5] was greater than 30 µM throughout.

With `Cc1c(=O)n(Cc2ccc(C(=O)N3CCOCC3)cc2)c(=O)n2cc(C(=O)NCc3ccncc3)sc12` [Example 73, 8-Methyl-6-[4-(morpholine-4-carbonyl)-benzyl]-5,7-dioxo-6,7-dihydro-5H-thiazolo[3,2-c]pyrimidine-2-carboxylic acid(pyridin-4-ylmethyl)-amide hydrochloride], the IC50 in experiment [2] is greater than 100 µM; in experiment [3] it was greater than 100 µM; in experiment [4] it was greater than 30 µM; in experiment [5], greater than 100 µM.

Consider `COC(=O)Nc1cc(Cn2c(=O)c(C)c3sc(C(=O)NCc4ccc(F)cc4)cn3c2=O)on1` [Example 74, {5-[2-(4-Fluoro-benzylcarbamoyl)-8-methyl-5,7-dioxo-7H-thiazolo[3,2-c]pyrimidin-6-ylmethyl]-isoxazol-3-yl}-carbamic acid methyl ester], for which the IC50 in experiment [2] was 87 µM; in experiment [3], greater than 30 µM; in experiment [4] it was greater than 30 µM; in experiment [5] it was greater than 30 µM.

On to `Cc1c(=O)n(Cc2ccc(-c3nn[nH]n3)cc2)c(=O)n2cc(C(=O)NCc3ccc(F)cc3)sc12` [Example 75, 8-Methyl-5,7-dioxo-6-[4-(2H-tetrazol-5-yl)-benzyl]-6,7-dihydro-5H-thiazolo[3,2-c]pyrimidine-2-carboxylic acid 4-fluoro-benzylamide], for which the IC50 in experiment [2], in experiment [3], in experiment [4] and in experiment [5] was greater than 100 µM in each case.

Take `Cc1c(=O)n(Cc2ccc(C(=O)N3CCOCC3)cc2)c(=O)n2cc(C(=O)NCc3ccc(F)cc3)sc12` [Example 76, 8-Methyl-6-[4-(morpholine-4-carbonyl)-benzyl]-5,7-dioxo-6,7-dihydro-5H-thiazolo[3,2-c]pyrimidine-2-carboxylic acid 4-fluoro-benzylamide]: the IC50 in experiment [2], in experiment [3], in experiment [4] and in experiment [5] was greater than 30 µM in each case.

For the compound `Cc1c(=O)n(Cc2ccc3cc(F)ccc3n2)c(=O)n2cc(C(=O)NCc3ccc(F)cc3)sc12` [Example 77, 6-(6-Fluoro-quinolin-2-ylmethyl)-8-methyl-5,7-dioxo-6,7-dihydro-5H-thiazolo[3,2-c]pyrimidine-2-carboxylic acid 4-fluoro-benzylamide], the IC50 in experiment [2], in experiment [3], in experiment [4] and in experiment [5] was greater than 30 µM in each case.

For `CC#CCn1c(=O)c(C)c2sc(C(=O)NCc3ccc(F)cc3)cn2c1=O` [Example 79, 6-But-2-ynyl-8-methyl-5,7-dioxo-6,7-dihydro-5H-thiazolo[3,2-c]pyrimidine-2-carboxylic acid 4-fluoro-benzylamide], the IC50 in experiment [2], in experiment [3], in experiment [4] and in experiment [5] was greater than 100 µM each time.

For the compound `Cc1c(=O)n(Cc2ccc3oc(=O)ccc3c2)c(=O)n2cc(C(=O)NCc3ccc(F)cc3)sc12` [Example 80, 8-Methyl-5,7-dioxo-6-(2-oxo-2H-1-benzopyran-6-ylmethyl)-6,7-dihydro-5H-thiazolo[3,2-c]pyrimidine-2-carboxylic acid 4-fluoro-benzylamide], the IC50 in experiment [2], in experiment [3], in experiment [4] and in experiment [5] was greater than 30 µM throughout.

With `Cc1c(=O)n(Cc2cccc(C#N)c2)c(=O)n2cc(C(=O)NCc3ccncc3)sc12` [Example 82, 6-(3-Cyano-benzyl)-8-methyl-5,7-dioxo-6,7-dihydro-5H-thiazolo[3,2-c]pyrimidine-2-carboxylic acid(pyridin-4-ylmethyl)-amide hydrochloride], the IC50 in experiment [2], in experiment [3], in experiment [4] and in experiment [5] was greater than 30 µM in each case.

`Cc1c(=O)n(Cc2ccc(S(N)(=O)=O)cc2)c(=O)n2cc(C(=O)NCc3ccncc3)sc12` [Example 84, 8-Methyl-5,7-dioxo-6-(4-sulfamoyl-benzyl)-6,7-dihydro-5H-thiazolo[3,2-c]pyrimidine-2-carboxylic acid(pyridin-4-ylmethyl)-amide hydrochloride]: the IC50 in experiment [2], in experiment [3], in experiment [4] and in experiment [5] was greater than 100 µM each time.

For the compound `COc1cccc(CNC(=O)c2cn3c(=O)n(Cc4ccccc4)c(=O)c(C)c3s2)c1` [Example 109, 6-Benzyl-8-methyl-5,7-dioxo-6,7-dihydro-5H-thiazolo[3,2-c]pyrimidine-2-carboxylic acid 3-methoxy-benzylamide], the IC50 in experiment [2], in experiment [3], in experiment [4] and in experiment [5] was greater than 30 µM in each case.

The values above are taken from patent US20060040957A1, “BICYCLIC PYRIMIDINE MATRIX METALLOPROTEINASE INHIBITORS” (priority 2001, published 2006).
